Data taken from ChEMBL document CHEMBL4699519, “Natural and Semisynthetic Chalcones as Dual FLT3 and Microtubule Polymerization Inhibitors” (J Nat Prod, 2020).
Values belong to the compound of their own block, whether it stands above or below them. Calls of active or inactive are those of the source. No cut-off for these calls is given here.

What was measured:
K562 [1] = assay: Antiproliferative activity against human K562 cells assessed as reduction in cell viability at 25 uM after 72 hrs by MTS assay relative to control; type: functional
MV4-11 [2] = assay: Antiproliferative activity against human MV4-11 cells assessed as reduction in cell viability at 50 uM after 72 hrs by MTS assay relative to control; type: functional
K562 [3] = assay: Antiproliferative activity against human K562 cells assessed as reduction in cell viability at 50 uM after 72 hrs by MTS assay relative to control; type: functional
MV4-11 [4] = assay: Antiproliferative activity against human MV4-11 cells assessed as reduction in cell viability at 25 uM after 72 hrs by MTS assay relative to control; type: functional
MOLM-13 [5] = assay: Antiproliferative activity against human MOLM-13 cells assessed as reduction in cell viability after 72 hrs by MTS assay; type: functional
MV4-11 [6] = assay: Antiproliferative activity against human MV4-11 cells assessed as reduction in cell viability after 72 hrs by MTS assay; type: functional
[7] = molecular target: T1, Receptor-type tyrosine-protein kinase FLT3 (Homo sapiens, UniProt P36888); assay: Inhibition of FLT3 (unknown origin) in presence of ATP
T1 sequence (P36888 whole entry): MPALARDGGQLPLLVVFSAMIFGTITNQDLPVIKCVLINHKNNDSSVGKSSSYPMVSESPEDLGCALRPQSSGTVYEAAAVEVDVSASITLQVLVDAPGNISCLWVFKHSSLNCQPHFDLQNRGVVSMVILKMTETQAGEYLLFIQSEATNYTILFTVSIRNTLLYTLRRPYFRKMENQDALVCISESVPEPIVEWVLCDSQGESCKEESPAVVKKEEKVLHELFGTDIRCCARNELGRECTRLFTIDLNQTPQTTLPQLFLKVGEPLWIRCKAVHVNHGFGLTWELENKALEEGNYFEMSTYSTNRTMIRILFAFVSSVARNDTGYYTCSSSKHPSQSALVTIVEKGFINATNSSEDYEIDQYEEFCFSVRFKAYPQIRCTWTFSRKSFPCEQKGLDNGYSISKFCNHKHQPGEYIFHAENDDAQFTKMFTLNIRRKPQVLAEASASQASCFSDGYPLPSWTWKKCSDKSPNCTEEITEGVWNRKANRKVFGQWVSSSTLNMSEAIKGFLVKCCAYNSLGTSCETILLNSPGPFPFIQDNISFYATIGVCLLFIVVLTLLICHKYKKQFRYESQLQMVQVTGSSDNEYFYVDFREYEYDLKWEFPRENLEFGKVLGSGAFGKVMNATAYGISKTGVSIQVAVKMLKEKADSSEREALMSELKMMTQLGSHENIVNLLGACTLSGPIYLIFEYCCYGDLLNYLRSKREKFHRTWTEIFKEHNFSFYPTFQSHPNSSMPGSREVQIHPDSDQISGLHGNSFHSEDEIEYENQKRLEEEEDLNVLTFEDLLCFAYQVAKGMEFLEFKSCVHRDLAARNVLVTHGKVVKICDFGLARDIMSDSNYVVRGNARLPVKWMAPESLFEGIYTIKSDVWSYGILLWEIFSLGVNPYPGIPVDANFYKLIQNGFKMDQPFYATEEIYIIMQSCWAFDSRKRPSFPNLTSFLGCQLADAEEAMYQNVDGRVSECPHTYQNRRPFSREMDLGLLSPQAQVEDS

THP-1 = assay: Antiproliferative activity against human THP-1 cells assessed as reduction in cell viability after 72 hrs by MTS assay; type: functional
[8] = test system: Receptor-type tyrosine-protein kinase FLT3 (Homo sapiens), P36888 [UNDEFINED MUTATION]; assay: Inhibition of FLT3 ITD mutant in human MV4-11 cells assessed as inhibition of STAT5 phosphorylation at 25 to 50 uM incubated for 2 hrs by immunoblotting analysis; type: cell-based; settings: dose microM 25-50, time 2.0 hrs
[9] = test system: Receptor-type tyrosine-protein kinase FLT3 (Homo sapiens), P36888 [UNDEFINED MUTATION]; assay: Inhibition of FLT3 ITD mutant in human MV4-11 cells assessed as inhibition of ERK phosphorylation at 25 to 50 uM incubated for 2 hrs by immunoblotting analysis; type: cell-based; settings: dose microM 25-50, time 2.0 hrs
MOLM-13 [10] = assay: Antiproliferative activity against human MOLM-13 cells harboring D835Y mutant assessed as reduction in cell viability after 72 hrs by MTS assay; type: functional
[11] = Resistant index, ratio of GI50 for antiproliferative activity against human MOLM-13 cells harboring D835Y mutant to antiproliferative activity against human MOLM-13 cells; type: functional
[12] = Selectivity ratio of GI50 for antiproliferative activity against human THP-1 cells to GI50 antiproliferative activity against human MOLM-13 cells; type: functional
MV4-11 [13] = assay: Induction of apoptosis in human MV4-11 cells assessed as increase in cleaved caspase-3 level at 0.313 to 5 uM after 24 hrs by Western blot analysis; type: functional, cell-based; settings: dose microM 0.313-5, time 24.0 hrs
[14] = test system: Receptor-type tyrosine-protein kinase FLT3 (Homo sapiens), P36888 [UNDEFINED MUTATION]; assay: Inhibition of FLT3 ITD mutant in human MV4-11 cells assessed as inhibition of STAT5 phosphorylation at 1.56 to 50 uM incubated for 2 hrs by immunoblotting analysis; type: cell-based; settings: dose microM 1.56-50, time 2.0 hrs
Tubulin (Homo sapiens) [15] = molecular target: T2, Tubulin (Homo sapiens) (UniProt P68371+Q9H4B7+P0DPH7+P68366+Q13509+Q71U36+P04350+Q3ZCM7+P07437+P68363+Q9BQE3+Q6PEY2+Q13885+Q9BVA1+Q9BUF5); assay: Inhibition of microtubule repolymerization in human A549 cells at 5 uM preincubated for 30 mins followed by 10 min incubation at ice cold methanol by DAPI staining based confocal microscopic method relative to control; type: cell-based; settings: time 40.0 min
Tubulin (Homo sapiens) [16] = molecular target: T2, Tubulin (Homo sapiens); assay: Displacement of colchicine from tubulin (unknown origin) at 50 uM after 1 hr by fluorescence assay relative to control; type: protein-complex assay
MV4-11 [17] = assay: Induction of apoptosis in human MV4-11 cells at 0.31 to 2.5 uM after 24 to 48 hrs by Annexin V/prpidium iodide staining based flow cytometric analysis; type: functional, cell-based; settings: dose microM 0.31-2.5, time hrs 24-48
Tubulin (Homo sapiens) [18] = molecular target: T2, Tubulin (Homo sapiens); assay: Displacement of colchicine from tubulin (unknown origin) at 25 uM after 1 hr by fluorescence assay relative to control; type: protein-complex assay
[19] = Selectivity ratio of GI50 for antiproliferative activity against human THP-1 cells to GI50 antiproliferative activity against human MV4-11 cells; type: functional
[20] = test system: Receptor-type tyrosine-protein kinase FLT3 (Homo sapiens), P36888 [UNDEFINED MUTATION]; assay: Inhibition of FLT3 ITD mutant in human MV4-11 cells assessed as inhibition of ERK phosphorylation at 1.56 to 50 uM incubated for 2 hrs by immunoblotting analysis; type: cell-based; settings: dose microM 1.56-50, time 2.0 hrs
Tubulin (Homo sapiens) [21] = molecular target: T2, Tubulin (Homo sapiens); assay: Inhibition of microtubule polymerization in human HCT-116 cells assessed as increase in histone H3 phosphorylation at S10 residue at 25 uM after 8 hrs by DOT blot analysis; type: cell-based
Tubulin (Homo sapiens) [22] = molecular target: T2, Tubulin (Homo sapiens); assay: Inhibition of microtubule polymerization in human MV4-11 cells assessed as increase in histone H3 phosphorylation at S10 residue at 0.35 to 2.5 uM after 24 hrs by propidium iodide staining based flow cytometric analysis; type: cell-based; settings: dose microM 0.35-2.5, time 24.0 hrs
Tubulin (Homo sapiens) [23] = molecular target: T2, Tubulin (Homo sapiens); assay: Inhibition of tubulin polymerization (unknown origin) measured every 30 sec for 1 hrs in presence of GTP by turbidimetric analysis; type: protein-complex assay; settings: dose microM 5-25, time 1.0 hrs
Tubulin (Homo sapiens) [24] = molecular target: T2, Tubulin (Homo sapiens); assay: Inhibition of microtubule polymerization in human HCT-116 cells assessed as increase in histone H3 phosphorylation at S10 residue at 0.78 uM after 8 hrs by Western blot analysis; type: cell-based
MV4-11 [25] = assay: Induction of apoptosis in human MV4-11 cells assessed as increase in cleaved PARP level at 0.313 to 5 uM after 24 hrs by Western blot analysis; type: functional, cell-based; settings: dose microM 0.313-5, time 24.0 hrs
Tubulin (Homo sapiens) [26] = molecular target: T2, Tubulin (Homo sapiens); assay: Inhibition of microtubule polymerization in human MV4-11 cells assessed as increase in histone H3 phosphorylation at S10 residue at 0.78 uM after 8 hrs by Western blot analysis; type: cell-based
Tubulin (Homo sapiens) [27] = molecular target: T2, Tubulin (Homo sapiens); assay: Displacement of colchicine in tubulin (unknown origin) at 12.5 uM after 1 hr by fluorescence assay relative to control; type: protein-complex assay
[28] = molecular target: Receptor-type tyrosine-protein kinase FLT3 (Homo sapiens) (UniProt P36888); assay: Inhibition of FLT3 (unknown origin) at 100 uM in presence of ATP relative to control

SMILES: COc1cccc(/C=C/C(=O)c2ccc(OCc3ccccc3)cc2)c1
Activity (K562 [1]): inactive
Activity (MV4-11 [2]): inactive
Activity (K562 [3]): inactive
Activity (MV4-11 [4]): inactive

GI50 (MOLM-13 [5]): 10 µM
GI50 (MV4-11 [6]): > 10 µM
IC50 [7]: 13.8 µM
GI50 (THP-1): > 100 µM
inhibition [8]: Active
inhibition [9]: Active
SMILES: COc1ccc(C(=O)/C=C/c2ccc(OC)c(OC)c2)c(O)c1
Activity (K562 [1]): Active
Activity (MV4-11 [2]): Active
Activity (K562 [3]): Active
Activity (MV4-11 [4]): Active

GI50 (MOLM-13 [5]): 0.052 µM
GI50 (MOLM-13 [10]): 1.9 µM
SMILES: COc1cc2c(N3CCN(C(=O)Nc4ccc(OC(C)C)cc4)CC3)ncnc2cc1OCCCN1CCCCC1 [TANDUTINIB]
RatioGI50 [11]: 35.8

GI50 (MOLM-13 [5]): > 10 µM
GI50 (MV4-11 [6]): > 10 µM
GI50 (THP-1): > 100 µM
inhibition [8]: Active
SMILES: COc1ccc(/C=C/C(=O)c2ccc(OC)cc2O)cc1
Activity (K562 [1]): Active
Activity (MV4-11 [2]): Active
Activity (K562 [3]): Active
Activity (MV4-11 [4]): Active

SMILES: O=C(/C=C/c1ccc(Cl)cc1)c1ccc(OCc2ccccc2)cc1
Activity (K562 [1]): inactive
Activity (MV4-11 [2]): inactive
Activity (K562 [3]): inactive
Activity (MV4-11 [4]): inactive

GI50 (MOLM-13 [5]): 0.2 µM
inhibition [14]: Active
GI50 (MV4-11 [6]): 0.24 µM
inhibition (Tubulin (Homo sapiens) [15]): 100%
inhibition (Tubulin (Homo sapiens) [16]): 87%
IC50 [7]: 5.7 µM
GI50 (THP-1): 5.4 µM
inhibition (Tubulin (Homo sapiens) [18]): 80%
inhibition [20]: Active
inhibition (Tubulin (Homo sapiens) [21]): Active
inhibition (Tubulin (Homo sapiens) [22]): Active
inhibition (Tubulin (Homo sapiens) [23]): Active
GI50 (MOLM-13 [10]): 0.22 µM
inhibition (Tubulin (Homo sapiens) [24]): Active
inhibition (Tubulin (Homo sapiens) [26]): Active
inhibition (Tubulin (Homo sapiens) [27]): 75%
SMILES: C=CCOc1cc(OC)ccc1C(=O)/C=C/c1ccc(OC)cc1
RatioGI50 [12]: >2
Activity (MV4-11 [13]): Active
Activity (K562 [1]): >95%
Activity (MV4-11 [17]): Active
RatioGI50 [19]: >2
Activity (MV4-11 [2]): >95%
Activity (K562 [3]): >95%
Activity (MV4-11 [25]): Active
Activity (MV4-11 [4]): >95%
RatioGI50 [11]: 1

SMILES: O=C(/C=C/c1ccccc1Cl)c1ccc(OCc2ccccc2)cc1
Activity (K562 [1]): inactive
Activity (MV4-11 [2]): inactive
Activity (K562 [3]): inactive
Activity (MV4-11 [4]): inactive

SMILES: O=C(/C=C/c1ccc(OCc2ccccc2)cc1)c1ccccc1
Activity (K562 [1]): inactive
Activity (MV4-11 [2]): inactive
Activity (K562 [3]): inactive
Activity (MV4-11 [4]): inactive

SMILES: COc1ccc(/C=C/C(=O)c2ccc3c(c2O)C=CC(C)(C)O3)cc1
Activity (K562 [1]): inactive
Activity (MV4-11 [2]): inactive
Activity (K562 [3]): inactive
Activity (MV4-11 [4]): inactive

inhibition (Tubulin (Homo sapiens) [16]): 93.5%
SMILES: COC(=O)Nc1nc2cc(C(=O)c3cccs3)ccc2[nH]1

SMILES: COc1ccc(/C=C/C(=O)c2ccc(OCc3ccccc3)cc2)c(OC)c1OC
Activity (K562 [1]): inactive
Activity (MV4-11 [2]): inactive
Activity (K562 [3]): inactive
Activity (MV4-11 [4]): inactive

GI50 (MOLM-13 [5]): > 10 µM
GI50 (MV4-11 [6]): > 10 µM
GI50 (THP-1): > 10 µM
inhibition [28]: 39.5%
inhibition [9]: Active
SMILES: O=C(/C=C/c1ccccc1)c1ccccc1O [2'-HYDROXYCHALCONE]
Activity (K562 [1]): Active
Activity (MV4-11 [2]): Active
Activity (K562 [3]): Active
Activity (MV4-11 [4]): Active

SMILES: O=C(/C=C/c1ccc(F)cc1)c1ccc(OCc2ccccc2)cc1
Activity (K562 [1]): inactive
Activity (MV4-11 [2]): inactive
Activity (K562 [3]): inactive
Activity (MV4-11 [4]): inactive

SMILES: O=C(/C=C/c1ccccc1)c1ccc(OCc2ccccc2)cc1
Activity (K562 [1]): inactive
Activity (MV4-11 [2]): inactive
Activity (K562 [3]): inactive
Activity (MV4-11 [4]): inactive
